# Data as given in the Kinase Knowledgebase extract (Sharma et al. 2016).
# Target: ROCK2 (human) (UniProt O75116)
# Experiment: Inhibition of ROCK2 Kinase Activity
# ROCK2 (human), sequence (O75116 whole entry, looked up): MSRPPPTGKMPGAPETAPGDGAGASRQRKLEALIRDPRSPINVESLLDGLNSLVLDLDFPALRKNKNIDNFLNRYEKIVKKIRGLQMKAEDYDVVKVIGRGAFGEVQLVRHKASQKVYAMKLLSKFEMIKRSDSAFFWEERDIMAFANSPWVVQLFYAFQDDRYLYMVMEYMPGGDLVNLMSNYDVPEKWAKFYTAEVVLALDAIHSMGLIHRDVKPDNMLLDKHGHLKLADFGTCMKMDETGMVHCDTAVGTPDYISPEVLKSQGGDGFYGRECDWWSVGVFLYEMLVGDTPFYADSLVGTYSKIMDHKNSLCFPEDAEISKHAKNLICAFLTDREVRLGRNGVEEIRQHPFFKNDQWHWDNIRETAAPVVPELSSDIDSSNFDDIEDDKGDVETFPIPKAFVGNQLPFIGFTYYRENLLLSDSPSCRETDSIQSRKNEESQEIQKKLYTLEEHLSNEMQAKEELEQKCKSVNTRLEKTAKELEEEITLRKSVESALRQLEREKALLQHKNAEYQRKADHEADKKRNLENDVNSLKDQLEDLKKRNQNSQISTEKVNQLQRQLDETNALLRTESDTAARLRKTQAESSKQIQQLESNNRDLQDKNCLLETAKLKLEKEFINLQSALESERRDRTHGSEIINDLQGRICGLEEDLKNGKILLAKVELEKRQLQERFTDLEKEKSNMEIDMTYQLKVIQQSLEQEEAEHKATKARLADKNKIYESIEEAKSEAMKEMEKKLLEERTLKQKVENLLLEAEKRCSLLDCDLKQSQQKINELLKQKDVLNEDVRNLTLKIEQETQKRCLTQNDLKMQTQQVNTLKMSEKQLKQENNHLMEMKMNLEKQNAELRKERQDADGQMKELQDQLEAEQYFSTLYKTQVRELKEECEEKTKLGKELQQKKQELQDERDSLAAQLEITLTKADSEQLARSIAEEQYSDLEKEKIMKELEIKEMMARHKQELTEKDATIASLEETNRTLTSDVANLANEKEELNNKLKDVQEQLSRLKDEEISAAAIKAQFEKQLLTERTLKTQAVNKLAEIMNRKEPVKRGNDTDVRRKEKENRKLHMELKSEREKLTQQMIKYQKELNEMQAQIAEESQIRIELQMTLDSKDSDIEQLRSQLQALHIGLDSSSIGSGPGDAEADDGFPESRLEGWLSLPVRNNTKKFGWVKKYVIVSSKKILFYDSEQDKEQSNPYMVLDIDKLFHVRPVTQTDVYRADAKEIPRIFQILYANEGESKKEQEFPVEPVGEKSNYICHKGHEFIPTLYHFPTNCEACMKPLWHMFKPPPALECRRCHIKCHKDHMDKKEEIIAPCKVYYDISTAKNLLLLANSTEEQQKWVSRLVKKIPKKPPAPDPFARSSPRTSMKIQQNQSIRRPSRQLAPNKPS
row,Compound,IC50 [µM]
1,COc1ccc(Br)c(C(=O)NCc2nc(-c3ccncc3)n[nH]2)c1,> 5
2,O=C(NCc1nc(-c2c[nH]c3ncccc23)n[nH]1)c1ccccc1Oc1ccccc1,> 5
3,O=C(NCc1nc(-c2c[nH]c3ncccc23)n[nH]1)c1ccc(F)c([N+](=O)[O-])c1,> 5
4,COc1ccc(C(=O)NCc2nc(-c3c[nH]c4ncccc34)n[nH]2)cc1,> 5
5,CC(C)Oc1ccc(C(=O)NCc2nc(-c3ccncc3)n[nH]2)cc1,> 5
6,N#Cc1cccc(C(=O)NCc2nc(-c3ccncc3)n[nH]2)c1,> 5
7,O=C(NCc1nc(-c2c[nH]c3ncccc23)n[nH]1)c1ccnc(Cl)c1,> 5
8,COc1cccc(C(=O)NCc2nc(-c3c[nH]c4ncccc34)cs2)c1,≤ 5
9,Cc1ccc(C(=O)NCc2nc(-c3ccncc3)n[nH]2)c(O)c1,≤ 5
10,Cc1cccc(C(=O)NCc2nc(-c3c[nH]c4ncccc34)n[nH]2)c1O,> 5
11,O=Cc1ccccc1OCC(=O)NCc1nc(-c2ccncc2)n[nH]1,> 5
12,Cc1nc(Br)sc1C(=O)NCc1nc(-c2ccncc2)n[nH]1,> 5
13,Cc1cc(C)c(C(=O)NCc2nc(-c3c[nH]c4ncccc34)n[nH]2)c(C)c1,> 5
14,CC(=O)c1cccc(C(=O)NCc2nc(-c3ccncc3)n[nH]2)c1,> 5
15,O=C(NCc1nc(-c2c[nH]c3ncccc23)n[nH]1)C(F)(F)F,> 5
16,O=C(C=Cc1ccc(Cl)cc1)NCc1nc(-c2ccncc2)n[nH]1,> 5
17,O=C(NCc1nc(-c2c[nH]c3ncccc23)n[nH]1)c1cccc2ccccc12,> 5
18,O=C(NCc1nc(-c2ccncc2)n[nH]1)c1cc(Cl)ccc1O,> 5
19,Cc1ccc(C(=O)CCC(=O)NCc2nc(-c3ccncc3)n[nH]2)cc1,> 5
20,CC(C)(C)OC(=O)N1Cc2ccccc2CC1C(=O)NCc1nc(-c2ccncc2)n[nH]1 (configuration not stated),> 5
21,COc1ccc([N+](=O)[O-])c(C(=O)NCc2nc(-c3ccncc3)n[nH]2)c1,> 5
22,CC(=O)Oc1cccc(C(=O)NCc2nc(-c3c[nH]c4ncccc34)n[nH]2)c1,> 5

row,Compound,IC50 [µM]
1,O=C(NCc1nc(-c2c[nH]c3ncccc23)n[nH]1)c1c(F)cccc1F,> 5
2,CC(C)(C)OC(=O)NC(Cc1ccccn1)C(=O)NCc1nc(-c2c[nH]c3ncccc23)n[nH]1 (configuration not stated),> 5
3,O=C(NCc1nc(-c2ccncc2)n[nH]1)c1ccc(O)cc1,≤ 5
4,O=C(NCc1nc(-c2ccncc2)n[nH]1)c1cccc(O)c1,> 5
5,O=C(NCc1nc(-c2ccncc2)n[nH]1)c1cc2ccccc2o1,> 5
6,COc1cc(C=CC(=O)NCc2nc(-c3c[nH]c4ncccc34)n[nH]2)ccc1O,> 5
7,O=C(NCc1nc(-c2ccncc2)n[nH]1)c1c(F)cccc1F,> 5
8,O=C(C=Cc1ccccc1C(F)(F)F)NCc1nc(-c2c[nH]c3ncccc23)n[nH]1,> 5
9,Cc1ccccc1C(=O)NCc1nc(-c2c[nH]c3ncccc23)n[nH]1,> 5
10,CC(C)c1ccc(C(=O)NCc2nc(-c3c[nH]c4ncccc34)n[nH]2)cc1,> 5
11,Cc1cccc([N+](=O)[O-])c1C(=O)NCc1nc(-c2c[nH]c3ncccc23)n[nH]1,> 5
12,O=C(NCc1nc(-c2c[nH]c3ncccc23)n[nH]1)c1ccc(Cl)c([N+](=O)[O-])c1,> 5
13,O=C(NCc1nc(-c2c[nH]c3ncccc23)n[nH]1)C1CCCCC1,> 5
14,O=C(NCc1nc(-c2ccncc2)n[nH]1)c1ccc(CO)cc1,≤ 5
15,Cc1c(O)ccc(C(=O)NCc2nc(-c3ccncc3)n[nH]2)c1O,≤ 5
16,O=C(NCc1nc(-c2c[nH]c3ncccc23)n[nH]1)c1cccc([N+](=O)[O-])c1,> 5
17,CC(C)(C)OC(=O)NC(Cc1ccc(O)cc1)C(=O)NCc1nc(-c2ccncc2)n[nH]1 (configuration not stated),> 5
18,O=C(NCc1nc(-c2c[nH]c3ncccc23)n[nH]1)c1ccncc1,> 5
19,Cc1ccc(C(=O)NCc2nc(-c3ccncc3)n[nH]2)s1,≤ 5
20,O=C(NCc1nc(-c2ccncc2)n[nH]1)c1cnc(O)c(Cl)c1,> 5
21,CC(C)C(NC(=O)OC(C)(C)C)C(=O)NCc1nc(-c2c[nH]c3ncccc23)n[nH]1 (configuration not stated),> 5
22,O=C(NCc1nc(-c2c[nH]c3ncccc23)n[nH]1)c1ccncc1Cl,> 5

row,Compound,IC50 [µM]
1,O=C(NCc1nc(-c2ccncc2)n[nH]1)c1cccc2c1OCC2,> 5
2,O=C(Cc1ccccc1)NCc1nc(-c2c[nH]c3ncccc23)n[nH]1,> 5
3,O=C(NCc1nc(-c2c[nH]c3ncccc23)n[nH]1)c1ccc(Oc2ccccc2)cc1,> 5
4,CC(C)Cc1ccc(C(C)C(=O)NCc2nc(-c3c[nH]c4ncccc34)n[nH]2)cc1 (configuration not stated),> 5
5,O=C(C=Cc1ccc2c(c1)OCO2)NCc1nc(-c2ccncc2)n[nH]1,> 5
6,O=C(NCc1nc(-c2ccncc2)n[nH]1)c1ccc([N+](=O)[O-])c(O)c1,≤ 5
7,O=C(NCc1nc(-c2ccncc2)n[nH]1)c1nccs1,≤ 5
8,O=C(CCc1cccc(C(F)(F)F)c1)NCc1nc(-c2ccncc2)n[nH]1,≤ 5
9,O=C(NCc1nc(-c2ccncc2)n[nH]1)C1CCCO1 (configuration not stated),> 5
10,Cc1ccc([N+](=O)[O-])c(C(=O)NCc2nc(-c3c[nH]c4ncccc34)n[nH]2)c1,> 5
11,O=C(c1cccs1)N1CCCC1c1nc(-c2ccncc2)n[nH]1 (configuration not stated),> 5
12,COc1ccc([N+](=O)[O-])c(C(=O)NCc2nc(-c3c[nH]c4ncccc34)n[nH]2)c1,> 5
13,COc1ccc(C(=O)NCc2nc(-c3ccncc3)no2)cc1,> 5
14,Cc1cc(C(=O)NCc2nc(-c3ccncc3)n[nH]2)ccc1Br,> 5
15,O=C(NCc1nc(-c2ccncc2)n[nH]1)c1cccs1,≤ 5
16,O=C(C=Cc1ccccc1O)NCc1nc(-c2c[nH]c3ncccc23)n[nH]1,> 5
17,CC(C)C(NC(=O)OC(C)(C)C)C(=O)NCc1nc(-c2ccncc2)n[nH]1 (configuration not stated),> 5
18,CC(=O)Oc1ccc(C(=O)NCc2nc(-c3ccncc3)n[nH]2)c(O)c1,≤ 5
19,O=C(c1cccs1)N1CCn2nc(-c3ccncc3)nc2C1,> 5
20,O=C(NCc1nc(-c2c[nH]c3ncccc23)n[nH]1)c1ccc([N+](=O)[O-])cc1Cl,> 5
21,Cc1csc(C(=O)NCc2nc(-c3ccncc3)n[nH]2)c1,≤ 5
22,CS(=O)(=O)Nc1ccc(C(=O)NCc2nc(-c3ccncc3)n[nH]2)cc1,> 5

row,Compound,IC50 [µM]
1,O=C(NCc1nc(-c2c[nH]c3ncccc23)n[nH]1)c1cc(Cl)ccc1Cl,> 5
2,CC(C)(C)OC(=O)N1CC(O)CC1C(=O)NCc1nc(-c2c[nH]c3ncccc23)n[nH]1 (configuration not stated),> 5
3,O=Cc1ccc(C(=O)NCc2nc(-c3c[nH]c4ncccc34)n[nH]2)cc1,> 5
4,COc1ccc(C(=O)NCc2nc(-c3c[nH]c4ncccc34)n[nH]2)cc1O,> 5
5,COc1cccc(OC)c1C(=O)NCc1nc(-c2ccncc2)n[nH]1,> 5
6,Clc1ccc(SCc2n[nH]c(-c3ccncc3)n2)cc1,≤ 5
7,CCC(C(=O)NCc1nc(-c2ccncc2)n[nH]1)c1ccncc1 (configuration not stated),> 5
8,CC(=O)NC(Cc1ccc(O)cc1)C(=O)NCc1nc(-c2ccncc2)n[nH]1 (configuration not stated),> 5
9,Cc1cc(C)cc(C(=O)NCc2nc(-c3ccncc3)n[nH]2)c1,> 5
10,O=C(NCc1nc(-c2ccncc2)c[nH]1)c1ccc(O)cc1O,≤ 5
11,CCOc1ccc2ccccc2c1C(=O)NCc1nc(-c2ccncc2)n[nH]1,> 5
12,COc1ccc(O)c(C(=O)NCc2nc(-c3c[nH]c4ncccc34)n[nH]2)c1,> 5
13,O=C(Cc1ccc(O)c(F)c1)NCc1nc(-c2c[nH]c3ncccc23)n[nH]1,> 5
14,O=C(NCc1nc(-c2c[nH]c3ncccc23)n[nH]1)C1CCCO1 (configuration not stated),> 5
15,O=C(NCc1nc(-c2ccncc2)n[nH]1)c1cccc(O)c1O,> 5
16,CC(C)(C)OC(=O)NC(Cc1ccccc1)C(=O)NCc1nc(-c2c[nH]c3ncccc23)n[nH]1 (configuration not stated),> 5
17,O=C(NCc1nc(-c2ccncc2)n[nH]1)c1cnc[nH]1,> 5
18,CCCOc1ccc(C(=O)NCc2nc(-c3c[nH]c4ncccc34)n[nH]2)cc1,> 5
19,O=C(NCc1nc(-c2ccncc2)n[nH]1)c1ccc(Cl)cc1O,> 5
20,O=C(NCc1nc(-c2c[nH]c3ncccc23)n[nH]1)c1cccc(Br)n1,> 5
21,O=C(NCc1nc(-c2ccncc2)n[nH]1)c1ccc([N+](=O)[O-])cc1Cl,> 5
22,O=C(NCc1nc(-c2c[nH]c3ncccc23)n[nH]1)c1cc2ccccc2o1,> 5

row,Compound,IC50 [µM]
1,O=C(NCc1nc(-c2c[nH]c3ncccc23)n[nH]1)c1c(Cl)cc(Cl)cc1Cl,> 5
2,O=C(NCc1nc(-c2c[nH]c3ncccc23)n[nH]1)c1c(F)c(F)c(F)c(F)c1F,> 5
3,CC(=O)NC(Cc1ccc(O)cc1)C(=O)NCc1nc(-c2c[nH]c3ncccc23)n[nH]1 (configuration not stated),> 5
4,O=C(NCc1nc(-c2ccncc2)n[nH]1)c1ccc(Cl)c([N+](=O)[O-])c1,> 5
5,O=C(NCc1nc(-c2ccncc2)n[nH]1)c1cccc(Br)c1,> 5
6,CC(C)C(C(=O)NCc1nc(-c2ccncc2)n[nH]1)N(C)C(=O)OC(C)(C)C (configuration not stated),> 5
7,CC(=O)Nc1cccc(C(=O)NCc2nc(-c3ccncc3)n[nH]2)c1,> 5
8,CN(C=O)c1ccc(C(=O)NCc2nc(-c3ccncc3)n[nH]2)cc1,> 5
9,O=C(NCc1nc(-c2ccncc2)n[nH]1)c1cccnc1,> 5
10,COc1cc(C(=O)NCc2nc(-c3c[nH]c4ncccc34)n[nH]2)cc(Cl)n1,> 5
11,COC1=C(O)C=CC(C=CC(=O)NCc2nc(-c3c[nH]c4ncccc34)n[nH]2)=CC1,> 5
12,O=C(NCc1nc(-c2c[nH]c3ncccc23)n[nH]1)c1ccccn1,> 5
13,CCCc1ccc(C(=O)NCc2nc(-c3ccncc3)n[nH]2)cc1,> 5
14,CC(C)(C)OC(=O)N1CCNC(C(=O)NCc2nc(-c3ccncc3)n[nH]2)C1 (configuration not stated),> 5
15,COC(=O)c1ccc(C(=O)NCc2nc(-c3ccncc3)n[nH]2)cc1,≤ 5
16,CC(NC(=O)OC(C)(C)C)C(=O)NCc1nc(-c2ccncc2)n[nH]1 (configuration not stated),> 5
17,O=C(C=Cc1ccccc1F)NCc1nc(-c2ccncc2)n[nH]1,> 5
18,Cc1cc(C(=O)NCc2nc(-c3ccncc3)n[nH]2)cc(Cl)n1,> 5
19,CC(=O)Nc1cccc(C(=O)NCc2nc(-c3c[nH]c4ncccc34)n[nH]2)c1,> 5
